According to patent US9018383B2, “Acylamino-substituted cyclic carboxylic acid derivatives and their use as pharmaceuticals” (Sanofi, priority 2009, dated 2015):

The molecules below were run against human Edg-2 receptor (Homo sapiens, UniProt Q92633) (assay: Determination of Edg-2 receptor inhibition by FLIPR measurements (LPA-mediated calcium liberation)). Conditions: CHO cells overexpressing human Edg-2 receptor, LPA 100 nM, fluo-4 calcium fluorescence; read-out: Inhibitory concentrations IC50 for inhibition of the Edg-2 receptor.
human Edg-2 receptor, sequence (Q92633 whole entry): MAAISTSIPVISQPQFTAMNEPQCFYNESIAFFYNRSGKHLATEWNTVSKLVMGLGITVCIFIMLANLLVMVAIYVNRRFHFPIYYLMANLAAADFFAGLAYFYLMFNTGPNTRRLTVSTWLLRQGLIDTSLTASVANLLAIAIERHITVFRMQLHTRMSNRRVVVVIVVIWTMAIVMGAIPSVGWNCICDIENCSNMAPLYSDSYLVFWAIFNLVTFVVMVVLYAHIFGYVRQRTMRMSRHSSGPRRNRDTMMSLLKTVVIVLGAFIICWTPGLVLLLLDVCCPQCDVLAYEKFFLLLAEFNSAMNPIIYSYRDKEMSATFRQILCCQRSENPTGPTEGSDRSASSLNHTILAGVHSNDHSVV
Assay type: cell-based
Method in brief: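 CHO cells stably overexpressing human Edg-2, loaded with fluo-4 AM, were pre-incubated ~5 min with compound (≤0.3% DMSO), then stimulated with 100 nM LPA 18:1 in HBSS/HEPES/probenecid, pH 7.5. Peak calcium fluorescence over ~3 min, baseline-corrected, versus DMSO gave % inhibition; IC50 from triplicates.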
For CC[C@H]1CC[C@](NC(=O)c2cnc(OC)c(OCCc3cccc(OC(F)(F)F)c3)c2)(C(=O)O)CC1 [Example 399, cis-4-Ethyl-1-({6-methoxy-5-[2-(3-trifluoromethoxy-phenyl)-ethoxy]-pyridine-3-carbonyl}-amino)-cyclohexanecarboxylic acid], the IC50 was under 100 nM. Molecule COc1ncc(C(=O)N[C@]2(C(=O)O)CC[C@H](C)CC2)cc1OCCc1ccccc1 [Example 400, cis-1-{[6-Methoxy-5-(2-phenyl-ethoxy)-pyridine-3-carbonyl]-amino}-4-methyl-cyclohexanecarboxylic acid] has an IC50 of under 100 nM. COc1ncc(C(=O)NC2(C(=O)O)CCCCCC2)cc1OCCc1cccc(Cl)c1 [Example 401, 1-({5-[2-(3-Chloro-phenyl)-ethoxy]-6-methoxy-pyridine-3-carbonyl}-amino)-cycloheptanecarboxylic acid] gave an IC50 of under 100 nM. Work on COc1ncc(C(=O)N[C@]2(C(=O)O)CC[C@H](C(F)(F)F)CC2)cc1OCCc1cccc(C)c1 [Example 402, cis-1-{[6-Methoxy-5-(2-m-tolyl-ethoxy)-pyridine-3-carbonyl]-amino}-4-trifluoromethyl-cyclohexanecarboxylic acid] yielded an IC50 of under 100 nM. CC[C@H]1CC[C@](NC(=O)c2ccc(OC)c(OCCc3cccc(OC(F)(F)F)c3)c2)(C(=O)O)CC1 [Example 403, cis-4-Ethyl-1-{4-methoxy-3-[2-(3-trifluoromethoxy-phenyl)-ethoxy]-benzoylamino}-cyclohexanecarboxylic acid] gave an IC50 of under 100 nM. COc1ccc(C(=O)N[C@]2(C(=O)O)CC[C@H](C)CC2)cc1OCCc1cc(Cl)ccc1F [Example 404, cis-1-{3-[2-(5-Chloro-2-fluoro-phenyl)-ethoxy]-4-methoxy-benzoylamino}-4-methyl-cyclohexanecarboxylic acid] showed an IC50 of under 100 nM. COc1ccc(C(=O)N[C@]2(C(=O)O)CC[C@H](C)CC2)cc1OCCc1cc(OC(F)(F)F)ccc1F [Example 405, cis-1-{3-[2-(2-Fluoro-5-trifluoromethoxy-phenyl)-ethoxy]-4-methoxy-benzoylamino}-4-methyl-cyclohexanecarboxylic acid] gave an IC50 of under 100 nM. In the case of COc1ccc(C(=O)N[C@]2(C(=O)O)CC[C@H](C)CC2)cc1OCCc1ccccc1 [Example 406, cis-1-(4-Methoxy-3-phenethyloxy-benzoylamino)-4-methyl-cyclohexanecarboxylic acid], the IC50 is reported as 100 to 1000 nM. CC[C@H]1CC[C@](NC(=O)c2cnc(OC)c(-c3ccc(F)cc3)c2)(C(=O)O)CC1 [Example 407] showed an IC50 of under 100 nM. CC[C@H]1CC[C@@](NC(=O)c2cnc(OC)c(-c3ccc(Cl)c(C(F)(F)F)c3)c2)(C(=O)O)CC1 [Example 408] showed an IC50 of 100 to 1000 nM. In the case of CC[C@H]1CC[C@](NC(=O)c2cnc(OC)c(-c3cccc(F)c3)c2)(C(=O)O)CC1 [Example 409], the IC50 is reported as under 100 nM. Molecule COc1ncc(C(=O)N[C@]2(C(=O)O)CC[C@H](C)CC2)cc1-c1cc(F)cc(F)c1 [Example 410] has an IC50 of under 100 nM. CC[C@H]1CC[C@](NC(=O)c2cnc(OC)c(-c3ccc(OC)c(F)c3)c2)(C(=O)O)CC1 [Example 411] gave an IC50 of under 100 nM. In the case of CC[C@H]1CC[C@@](NC(=O)c2cnc(OC)c(-c3ccc(OC)c(F)c3)c2)(C(=O)O)CC1 [Example 412], the IC50 is reported as under 100 nM. CC[C@H]1CC[C@](NC(=O)c2cnc(OCCO)c(-c3cccc(C(F)(F)F)c3)c2)(C(=O)O)CC1 [Example 413, 4-Ethyl-1-{[6-(2-hydroxy-ethoxy)-5-(3-trifluoromethyl-phenyl)-pyridine-3-carbonyl]-amino}-cyclohexanecarboxylic acid] gave an IC50 of under 100 nM. CC[C@H]1CC[C@](NC(=O)c2cnc(OCCO)c(-c3ccc(F)c(F)c3)c2)(C(=O)O)CC1 [Example 414] gave an IC50 of under 100 nM. With CC[C@H]1CC[C@](NC(=O)c2cnc(OCCO)c(-c3cc(F)cc(F)c3)c2)(C(=O)O)CC1 [Example 415] the IC50 was under 100 nM. CC[C@H]1CC[C@](NC(=O)c2cnc(OCCO)c(-c3cccc(OC(F)(F)F)c3)c2)(C(=O)O)CC1 [Example 416] was tested, and the IC50 was under 100 nM. CC[C@H]1CC[C@](NC(=O)c2cnc(OCCO)c(-c3ccc(OC)c(Cl)c3)c2)(C(=O)O)CC1 [Example 417] showed an IC50 of under 100 nM. With CC[C@H]1CC[C@@](NC(=O)c2ccc(OCCO)c(OCCc3cccc(Cl)c3)c2)(C(=O)O)CC1 [Example 418, trans-1-[3-[2-(3-Chloro-phenyl)-ethoxy]-4-(2-hydroxy-ethoxy)-benzoylamino]-4-ethyl-cyclohexanecarboxylic acid] the IC50 was under 100 nM. CC[C@H]1CC[C@](NC(=O)c2ccc(OCCO)c(OCCc3cccc(Cl)c3)c2)(C(=O)O)CC1 [Example 419, cis-1-[3-[2-(3-Chloro-phenyl)-ethoxy]-4-(2-hydroxy-ethoxy)-benzoylamino]-4-ethyl-cyclohexanecarboxylic acid] gave an IC50 of under 100 nM. For C[C@H]1CC[C@@](NC(=O)c2ccc(OCCO)c(OCCc3ccccc3)c2)(C(=O)O)CC1 [Example 420, trans-1-[4-(2-Hydroxy-ethoxy)-3-phenethyloxy-benzoylamino]-4-methyl-cyclohexanecarboxylic acid], the IC50 was 100 to 1000 nM. For C[C@H]1CC[C@](NC(=O)c2ccc(OCCO)c(OCCc3ccccc3)c2)(C(=O)O)CC1 [Example 421, cis-1-[4-(2-Hydroxy-ethoxy)-3-phenethyloxy-benzoylamino]-4-methyl-cyclohexanecarboxylic acid], the IC50 was 100 to 1000 nM. O=C(NC1(C(=O)O)CCCCCC1)c1ccc(OCCO)c(OCCc2ccccc2)c1 [Example 422, 1-[4-(2-Hydroxy-ethoxy)-3-phenethyloxy-benzoylamino]cycloheptanecarboxylic acid] showed an IC50 of 100 to 1000 nM. CC[C@H]1CC[C@](NC(=O)c2cnc(OC)c(OCCc3cccc(CCO)c3)c2)(C(=O)O)CC1 [Example 423, cis-4-Ethyl-1-[(5-{2-[3-(2-hydroxy-ethyl)-phenyl]-ethoxy}-6-methoxy-pyridine-3-carbonyl)-amino]-cyclohexanecarboxylic acid] showed an IC50 of under 100 nM. CC[C@H]1CC[C@@](NC(=O)c2cnc(OC)c(OCCc3cccc(CCO)c3)c2)(C(=O)O)CC1 [Example 424, trans-4-Ethyl-1-[(5-{2-[3-(2-hydroxy-ethyl)-phenyl]-ethoxy}-6-methoxy-pyridine-3-carbonyl)-amino]-cyclohexanecarboxylic acid] gave an IC50 of under 100 nM. Molecule CC[C@H]1CC[C@](NC(=O)c2ccc(OC)c(-c3ccc(OC)c(F)c3)c2)(C(=O)O)CC1 [Example 425, cis-4-Ethyl-1-[(3′-fluoro-6,4′-dimethoxy-biphenyl-3-carbonyl)-amino]-cyclohexanecarboxylic acid] has an IC50 of 100 to 1000 nM. CC[C@H]1CC[C@](NC(=O)c2cnc(O)c(-c3cccc(C(F)(F)F)c3)c2)(C(=O)O)CC1 [Example 426, cis-4-Ethyl-1-{[6-hydroxy-5-(3-trifluoromethyl-phenyl)-pyridine-3-carbonyl]-amino}-cyclohexanecarboxylic acid] showed an IC50 of 100 to 1000 nM. For CC[C@@H]1C[C@]1(NC(=O)c1ccc(OC)c(-c2cccc(C(F)(F)F)c2)c1)C(=O)O [Example 427, (1R,2R)-2-Ethyl-1-[(6-methoxy-3′-trifluoromethyl-biphenyl-3-carbonyl)-amino]-cyclopropanecarboxylic acid], the IC50 was 100 to 1000 nM. In the case of CC[C@H]1CC[C@](NC(=O)c2ccc(C=O)c(-c3cccc(C(F)(F)F)c3)c2)(C(=O)O)CC1 [Example 428, cis-4-Ethyl-1-[(6-formyl-3′-trifluoromethyl-biphenyl-3-carbonyl)-amino]-cyclohexanecarboxylic acid], the IC50 is reported as under 100 nM. With CC[C@H]1CC[C@@](NC(=O)c2ccc(C=O)c(-c3cccc(C(F)(F)F)c3)c2)(C(=O)O)CC1 [Example 429, trans-4-Ethyl-1-[(6-formyl-3′-trifluoromethyl-biphenyl-3-carbonyl)-amino]-cyclohexanecarboxylic acid] the IC50 was 100 to 1000 nM. Work on CC[C@H]1CC[C@](NC(=O)c2ccc(CO)c(-c3cccc(C(F)(F)F)c3)c2)(C(=O)O)CC1 [Example 430, cis-4-Ethyl-1-[(6-hydroxymethyl-3′-trifluoromethyl-biphenyl-3-carbonyl)-amino]-cyclohexanecarboxylic acid] yielded an IC50 of 100 to 1000 nM. With CC[C@H]1CC[C@@](NC(=O)c2ccc(CO)c(-c3cccc(C(F)(F)F)c3)c2)(C(=O)O)CC1 [Example 431, trans-4-Ethyl-1-[(6-hydroxymethyl-3′-trifluoromethyl-biphenyl-3-carbonyl)-amino]-cyclohexanecarboxylic acid] the IC50 was 100 to 1000 nM. CC[C@H]1CC[C@](NC(=O)c2ccc(CCCO)c(-c3cccc(C(F)(F)F)c3)c2)(C(=O)O)CC1 [Example 433, cis-4-Ethyl-1-{[6-(3-hydroxy-propyl)-3′-trifluoromethyl-biphenyl-3-carbonyl]-amino}-cyclohexanecarboxylic acid] gave an IC50 of under 100 nM. C[C@H]1CC[C@](NC(=O)c2ccc(CCCO)c(-c3cccc(C(F)(F)F)c3)c2)(C(=O)O)CC1 [Example 434, cis-1-{[6-(3-Hydroxy-propyl)-3′-trifluoromethyl-biphenyl-3-carbonyl]-amino}-4-methyl-cyclohexanecarboxylic acid] showed an IC50 of 100 to 1000 nM. For CCc1ncc(C(=O)N[C@]2(C(=O)O)CC[C@H](C)CC2)cc1OCCc1cccc(Cl)c1 [Example 435, cis-1-({5-[2-(3-Chloro-phenyl)-ethoxy]-6-ethyl-pyridine-3-carbonyl}-amino)-4-methyl-cyclohexanecarboxylic acid], the IC50 was 100 to 1000 nM. CCc1ncc(C(=O)N[C@]2(C(=O)O)CC[C@@H](C)CC2)cc1OCCc1cccc(Cl)c1 [Example 436, trans-1-({5-[2-(3-Chloro-phenyl)-ethoxy]-6-ethyl-pyridine-3-carbonyl}-amino)-4-methyl-cyclohexanecarboxylic acid] was tested, and the IC50 was 100 to 1000 nM.
